From patent US4983632A, “Use of gamma-hydroxybutyric acid salts for preparing pharmaceutical compositions for use in the treatment of alcoholism, and the compositions obtained” (Laboratorio Farmaceutico C.T. S.r.l., priority 1988, dated 1991)
Structures can show the parent of a compound that is named as a salt.

Legend:
[1] = tested on: craving for ethyl alcohol in alcoholics; test: Clinical study, craving for ethyl alcohol in alcoholics (overall); assay type: in vivo, man; details: overall clinical conclusion
Description: To the end of demostrating the efficacy of the pharmaceutical compositions according to the invention we have furthermore carried out some […] tests to evaluate the efficacy of GHB salts in obtaining and mantaining abstention from alcoholic drinks in man; we synthetically report herein below the methods followed and the results obtained in one of such studies.
(§1) Finally, to the end of proving that the craving for drinks containing ethyl alcohol ("craving" for short) can be modified by pharmacological treatment with the compositions according to the present invention, we have selected 40 alcohol-dependent individuals according to the Diagnostic and Statistic Manual, 3rd edition Revised (DMS-III R) classification.
(§2) […] a NaGHB treatment at the doses of 0.05 g/kg/day in two administrations was given for an average period of 4-6 weeks.
(§3) In order to obtain a further experimental confirmation of the results obtained in the open test, we have carried out a test in double-blind.
(§4) 80 individuals, alcohol dependent according to DSM III-R, were divided in two groups by simple randomization and treated with NaGHB or with a placebo at the doses of 0.05 g/kg/day divided in two administrations for a total of 60 days.

[2] = tested on: alcohol-preferring rats; test: Voluntary consumption of ethanol in alcohol-preferring rats, NaGHB (Table 2); assay type: in vivo, male Wistar rats; details: for Ethanol consumption, treatment: three consecutive days
Procedure: The trial was carried out on male Wistar rats of initial weight 130-160 g. The alcohol-preferring rats were chosen from a heterogeneous rat population having an average age of 40 days. The animals were caged individually and kept in an environment at a temperature of 24° C., with light from 8.00 to 20.00 hous. The method used to select alcohol-preferring rats was to allow the animals to choose from two bottles, one containing water and the other containing an increasingly strong ethanol solution. The tapwater and the ethanol solution were administered from graduated bottles (Richter), their positon being changed irregularly to prevent the habit of drinking from the same bottle. Starting from a 3% ethanol solution, the concentration was increased by 1% every day to a maximum of 10%. This ethanol concentration was used for the whole trial period. The experiments were carried out only on rats by whom more than 60% of the liquid drunk had been 10% ethanol. The thus chosen rats imbibed a constant mean ethanol quantity of 3.2±0.4 g/rat/day. The weight of the animals during this period was 380±35 g, and therefore the consumption of absolute alcohol per rat per kg of body weight was 8±0.54 g.
Different randomly chosen groups of these animals were respectively treated with increasing doses of the sodium salt of gamma-hydroxy butyric acid (NaGHB) wheas the control group received the same volume of physiological solution (10 ml/kg). The quantity of ethanol and water imbibed was recorded before, during and after treatment at the same time each day, and the treatment was repeated for three consecutive days.
The results of this trial are given in Table 2 which compares ethanol consumption in g/kg before, during and after treatment with NaGHB at three different doses of 150, 300 and 450 mg/kg.

[3] = target: T1, alcohol dehydrogenase (ADH) (Rattus norvegicus, UniProt P06757); test: ADH activity in supernatant of rat liver homogenate; assay type: biochemical; details: for ADH activity: mean±M.S.E. of three experiments
T1 construct: measured using the surnatant of rat liver homogenate; from tissue; host or cells: rat liver homogenate supernatant
T1 sequence (P06757 whole entry): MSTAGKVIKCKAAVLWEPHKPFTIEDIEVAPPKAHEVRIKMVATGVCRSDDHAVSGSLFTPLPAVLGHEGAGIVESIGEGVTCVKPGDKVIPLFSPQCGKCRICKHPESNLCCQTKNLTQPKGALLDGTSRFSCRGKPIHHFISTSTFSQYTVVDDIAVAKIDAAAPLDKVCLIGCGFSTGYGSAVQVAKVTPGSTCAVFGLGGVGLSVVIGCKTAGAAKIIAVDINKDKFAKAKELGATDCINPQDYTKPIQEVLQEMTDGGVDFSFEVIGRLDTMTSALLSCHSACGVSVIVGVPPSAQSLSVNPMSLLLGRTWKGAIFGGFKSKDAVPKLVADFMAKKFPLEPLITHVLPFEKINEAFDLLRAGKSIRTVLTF
Procedure: (§5) The ADH and ALDH activity were measured using the surnatant of rat liver homogenate. The ADH activity was measured by oxidising the ethanol to acetaldehyde in the presence of NAD in tubes containing NaGHB.
(§6) The formation of reduced nicotine-adenine dinucleotide (NADH) was determined by spectrometry measurement at 340 nm and the ALDH activity was determined in the same manner. In addition, pyrazole (0.03M) was added to the reaction mixture to inhibit ADH and propionaldehyde was added as substrate. Each value is the mean±M.S.E. of three experiments.

[4] = tested on: aldehyde dehydrogenase (ALDH); test: ALDH activity in supernatant of rat liver homogenate; assay type: biochemical; details: for ALDH activity: pyrazole 0.03M, propionaldehyde substrate, mean±M.S.E. of three experiments
Procedure: as §5, §6

[5] = Acute toxicity for oral administration in the mouse; assay type: in vivo; details: in vivo; for mortality: read-out: Mortality (M+F)
[6] = tested on: mouse; test: as above; assay type: in vivo
[7] = Acute toxicity for intraperitoneal administration in the mouse; assay type: in vivo; details: in vivo, ip; for mortality: read-out: Mortality (M + F)
[8] = tested on: mouse; test: as above; assay type: in vivo
[9] = tested on: rat; test: Chronic toxicity tests on the rat; assay type: in vivo
[10] = tested on: craving for drinks containing ethyl alcohol; test: Craving in alcohol-dependent individuals, open test; assay type: in vivo, man
Description: (§7) To this end we have prepared a questionnaire entitled "Restrained Drinking and Alcohol Craving Scale" (RDAGS) and we have examined whether said questionnaire was capable of differentiating between alcoholics and non-alcoholics.
as §1, §2
For comparison, a group of 40 alcoholics was examined, using the same criteria as for the NaGHB treatment groups; to this group a psychological and/or socio-rehabilitation technique was applied, with no specific pharmacological support (polyvitamins only).

[11] = tested on: craving for drinks containing ethyl alcohol; test: Craving in alcohol-dependent individuals, double-blind test; assay type: in vivo, man
Description: as §7, §3, §4

[12] = tested on: alcohol-preferring rats; test: Inhibition of voluntary ethanol consumption by alcohol-preferring rats, PTT-01 (Table 1); assay type: in vivo, rat; details: mean of 10 animals
Description: Each value represents the mean of 10 aminals.

[13] = cited from earlier work
[14] = tested on: aldehyde-dehydrogenase enzyme; details: assumed competition with NAD on active sites; cited from earlier work
[15] = tested on: patients; details: cited from earlier work
[16] = 0.05 g/kg/day in two administrations, 60 days, vs placebo

O=C(O)CCCO [GHB, gamma-hydroxybutyric acid]
suppression of craving for ethyl alcohol in alcoholics [1]: surprising activity of GHB in suppressing the craving for ethyl alcohol in alcoholics

O=C(O)CCCO [NaGHB, sodium salt of gamma-hydroxybutyric acid]
Ethanol consumption, post-treatment ([2]; NaGHB 150 mg/kg): 7.02 ± 0.44 g/kg | Ethanol consumption, pretreatment ([2]; NaGHB 150 mg/kg group): 7.71 ± 0.51 g/kg | Ethanol consumption, treatment ([2]; NaGHB 150 mg/kg): 6.11 ± 0.21 g/kg | Ethanol consumption, post-treatment ([2]; NaGHB 300 mg/kg): 5.88 ± 0.35 g/kg | Ethanol consumption, pretreatment ([2]; NaGHB 300 mg/kg group): 7.48 ± 0.35 g/kg | Ethanol consumption, treatment ([2]; NaGHB 300 mg/kg): 3.43 ± 0.23 g/kg | Ethanol consumption, post-treatment ([2]; NaGHB 450 mg/kg): 5.10 ± 0.48 g/kg | Ethanol consumption, pretreatment ([2]; NaGHB 450 mg/kg group): 7.82 ± 0.46 g/kg | Ethanol consumption, treatment ([2]; NaGHB 450 mg/kg): 2.12 ± 0.11 g/kg | consumption of ethyl alcohol relative to consumption before treatment ([2]; daily administration, 450 mg/kg): below 50% | total imbibed fluid ([2]; during treatment): no significant reduction in total imbibed fluid | Alcohol consumption and preference for alcohol after interrupting administration ([2]; five days after interruption): returned to their pre-treatment levels five days after interrupting the administration of the medicament | ADH activity ([3]; 10^-3 molar): 0.0239 ± 0.0015 D.O/min/mg prot | ADH activity ([3]; 10^-4 molar): 0.0240 ± 0.0018 D.O/min/mg prot | ADH activity ([3]; 10^-5 molar): 0.0245 ± 0.0018 D.O/min/mg prot | inhibition of alcohol dehydrogenase (ADH) ([3]; up to 10^-3 M): does not inhibit | acetaldehyde metabolism [4]: without in any way altering acetaldehyde metabolism | ALDH activity ([4]; 10^-3 molar): 0.0132 ± 0.0009 D.O/min/mg prot | ALDH activity ([4]; 10^-4 molar): 0.0138 ± 0.0011 D.O/min/mg prot | ALDH activity ([4]; 10^-5 molar): 0.0135 ± 0.0010 D.O/min/mg prot | inhibition of aldehyde dehydrogenase (ALDH) ([4]; up to 10^-3 M): does not inhibit | mortality ([5]; 10000 mg/kg, 10 g/kg): 0% | mortality ([5]; 11000 mg/kg, 11 g/kg): 33.3% | mortality ([5]; 13000 mg/kg, 13 g/kg): 66.6% | mortality ([5]; 15000 mg/kg, 15 g/kg): 100% | LD50 ([5]; Table 4, 95% CL 10.95-13.17): 12000 mg/kg | LD50 [6]: 12014 mg/kg | mortality ([7]; 2500 mg/kg, 2.5 g/kg): 0% | mortality ([7]; 3000 mg/kg, 3 g/kg): 33.3% | mortality ([7]; 3500 mg/kg, 3.5 g/kg): 66.7% | mortality ([7]; 4000 mg/kg, 4 g/kg): 100% | LD50 ([7]; Table 5, 95% CL 2.92-3.521): 3210 mg/kg | LD50 [8]: 3210 mg/kg | toxic action at organ level [9]: No toxic action at organ level was observed | craving reduction ([10]; 0.05 g/kg/day in two administrations, 4-6 weeks): statistically highly significant craving reduction | Craving decrease induced by NaGHB ([10]; 40 alcohol-dependents in open test (Table 6)): Efficient | drop-out percentage [11, 16]: lower, statistically significant, drop-out percentage | improvement of the craving [11, 16]: notable improvement of the craving | Craving decrease induced by NaGHB ([11]; 40 alcohol dependents in double blind test (Table 6)): Efficient

CCCCC(=O)NC1CCOC1=O (stereo not drawn) [PTT-01, α-n-butyl carbonylamino-gamma-butyro lactone]
Ethanol consumption, pretreatment ([12]; PTT-01 100 mg/kg group): 7.21 ± 0.40 g/kg | Ethanol consumption, post-treatment ([12]; PTT-01 100 mg/kg): 7.24 ± 0.44 g/kg | Ethanol consumption, treatment ([12]; PTT-01 100 mg/kg): 7.03 ± 0.38 g/kg | Ethanol consumption, pretreatment ([12]; PTT-01 200 mg/kg group): 7.70 ± 0.28 g/kg | Ethanol consumption, post-treatment ([12]; PTT-01 200 mg/kg): 7.36 ± 0.51 g/kg | Ethanol consumption, treatment ([12]; PTT-01 200 mg/kg): 7.51 ± 0.41 g/kg | Ethanol consumption, pretreatment ([12]; PTT-01 300 mg/kg group): 7.08 ± 0.19 g/kg | Ethanol consumption, post-treatment ([12]; PTT-01 300 mg/kg): 6.98 ± 0.15 g/kg | Ethanol consumption, treatment ([12]; PTT-01 300 mg/kg): 7.00 ± 0.46 g/kg

CCN(CC)C(=S)SSC(=S)N(CC)CC [disulfiram]
acetaldehyde level in the blood, times greater than with alcohol alone ([13]; alcohol after disulfiram pretreatment vs same dose of alcohol only): 5-10 times | acetaldehyde concentration ([13]; in the presence of disulfiram): acetaldehyde concentration increases | acetaldehyde oxidation rate [14]: reducing the acetaldehyde oxidation rate | toxicity when administered alone ([15]; alone, therapeutic doses): not toxic, although not completely innocuous | side effects ([15]; disulfiram itself): can cause acneform eruptions, allergic dermatitis, urticaria, tiredness, fatique, tremors, reduced sexual power, gastric disturbances and digestive disturbances | adverse reactions following disulfiram treatment ([15]; following treatment, discussed with ingestion of alcohol): cases of respiratory depression, cardiovascular collapse, cardiac arrhythmia, myocardium infarct, and sudden or unexpected death have occurred | refusal of alcoholic drinks ([15]; patients treated): refuse alcoholic drinks
